Data as given in patent US20040077674A1, “Mappicine analogs, intermediates in the synthesis of mappicine analogs and methods of synthesis of mappicine analogs” (priority 2002, published 2004).

Experiments:
[1] = target: T1, RNase H activity of HIV reverse transcriptase (Human immunodeficiency virus type 1 group M subtype B, UniProt P03366); assay: Fluorescence (FRET)-based RNase H assay of HIV reverse transcriptase; type: biochemical, HIV-1; conditions: 10 μM inhibitor concentration, activity in presence / in absence of analog x 100; for remaining activity at 10 µM: read-out: Residual activity (%) RNase H
T1 construct: 2.5 nM of the p51/p66 RT heterodimer in the assay; made in house

[2] = target: T2, RNA-dependent DNA polymerase activity of HIV reverse transcriptase (Human immunodeficiency virus type 1 group M subtype B, UniProt P03366); assay: RNA-dependent DNA polymerase activity assay of HIV reverse transcriptase; type: biochemical, HIV-1; conditions: 10 μM inhibitor concentration, activity in presence / in absence of analog x 100; for remaining activity at 10 µM: read-out: Residual activity (%) Polymerase
T2 construct: made in house
Method: In separate representative assays, mappicine analogs were tested for their ability to inhibit the RNA-dependent DNA polymerase activity of HIV reverse transcriptase and for their ability to inhibit the RNase H activity of HIV reverse transcriptase. The assay for RNA-dependent DNA polymerase activity is discussed in Borkow, G. et al., “Inhibition of the Ribonuclease H and DNA Polymerase Activities of HIV-1 Reverse Transcriptase by N-(4-tert-Butylbenzoyl)-2-hydroxy-1-naphthaldehyde Hydrazone,” Biochemistry 1997, 36, 3179-3185, a copy of which is attached hereto and the disclosure of which is incorporated herein by reference. Assays were carried out in the absence and in the presence of mappicine analogs (10 μM final concentration). The results are reported as % residual activity, which is the RNA-dependent DNA polymerase activity of the enzyme in the presence of the mappicine analog divided by the RNA-dependent activity of the enzyme in the absence of the mappicine analog, multiplied by 100.

Row | Compound | Residual activity (%) RNase H [1] [%] | Residual activity (%) Polymerase [2] [%] | also measured
1 | CCCCCCc1c2c(nc3ccccc13)-c1cc(C(=O)CC)c(C)c(=O)n1C2 [5 (8Aακ)] | 77 | 53 | 
2 | CCC(=O)c1cc2n(c(=O)c1C)Cc1c-2nc2ccc(F)cc2c1[Si](C)(C)C [5 (5Bακ)] | 89 | 74 | 
3 | Cc1c(C(O)Cc2ccccc2)cc2n(c1=O)Cc1c-2nc2ccc(F)cc2c1-c1ccccc1 (centres unmarked) [5 (3Bε)] | 91 | 28 | 
4 | CCC(O)c1cc2n(c(=O)c1C)Cc1c-2nc2ccc(F)cc2c1[Si](C)(C)C(C)(C)C (centres unmarked) [5 (4Bα)] | 108 | 98 | 
5 | Cc1c(C(O)Cc2ccccc2)cc2n(c1=O)Cc1c-2nc2ccc(F)cc2c1[Si](C)(C)C(C)(C)C (centres unmarked) [5 (4Bε)] | 89 | 61 | 
6 | CCC(O)c1cc2n(c(=O)c1C)Cc1c-2nc2ccc(C)cc2c1-c1ccccc1 (centres unmarked) [5 (3Cα)] | 96 | 64 | 
7 | Cc1c(C(O)CCC2CCCCC2)cc2n(c1=O)Cc1c-2nc2ccc(F)cc2c1[Si](C)(C)C (centres unmarked) [5 (5Bδ)] | 103 | 78 | 
8 | Cc1ccc2nc3c(c([Si](C)(C)C)c2c1)Cn1c-3cc(C(O)Cc2ccccc2)c(C)c1=O (centres unmarked) [5 (5Cε)] | 93 | 87 | 
9 | CCC(=O)c1cc2n(c(=O)c1C)Cc1c-2nc2ccc(C)cc2c1[Si](C)(C)C(C)(C)C [5 (4Cακ)] | 90 | 52 | 
10 | Cc1c(C(O)C(C)(C)C)cc2n(c1=O)Cc1c-2nc2ccccc2c1[Si](C)(C)C (centres unmarked) [5 (5Aβ)] | 77 | 103 | 
11 | Cc1c(C(O)C(C)(C)C)cc2n(c1=O)Cc1c-2nc2ccccc2c1-c1ccccc1 (centres unmarked) [5 (3Aβ)] | 95 | 54 | 
12 | CCC(O)c1cc2n(c(=O)c1C)Cc1c-2nc2ccc(N)cc2c1[Si](C)(C)C (centres unmarked) [5 (AG 3M), 2-Amino-7-(1-hydroxypropyl)-8-methyl-12-trimethylsilanyl-1 1H-indolizino[1,2-b]quinolin-9-one] |  |  | remaining activity at 10 µM [1]: 63%; remaining activity at 10 µM [2]: 123%
13 | COc1ccc2nc3c(c([Si](C)(C)C)c2c1)Cn1c-3cc(C(=O)CCC2CCCCC2)c(C)c1=O [5 (5Dδκ)] | 92 | 40 | 
14 | Cc1c(C(O)CCC2CCCCC2)cc2n(c1=O)Cc1c-2nc2ccccc2c1[Si](C)(C)C(C)(C)C (centres unmarked) [5 (4Aδ)] | 95 | 45 | 
15 | CCc1c2c(nc3ccc(O)cc13)-c1cc(C(O)CC)c(C)c(=O)n1C2 (centres unmarked) [5 (AG 8M), 12-Ethyl-2-hydroxy-7-(1-hydroxypropyl)-8-methyl-11H-indolizino[1,2-b]quinolin-9-one] |  |  | remaining activity at 10 µM [1]: 87%; remaining activity at 10 µM [2]: 69%
16 | CCC(O)c1cc2n(c(=O)c1C)Cc1c-2nc2ccc(F)cc2c1[Si](C)(C)C (centres unmarked) [5 (5Bα)] | 105 | 82 | 
17 | CCC(O)c1cc2n(c(=O)c1C)Cc1c-2nc2ccccc2c1-c1ccccc1 (centres unmarked) [5 (3Aα)] | 97 | 90 | 
18 | Cc1c(C(=O)CCC2CCCCC2)cc2n(c1=O)Cc1c-2nc2ccc(F)cc2c1[Si](C)(C)C [5 (5Bδκ)] | 78 | 46 | 
19 | CCCCCCc1c2c(nc3ccccc13)-c1cc(C(O)CCC3CCCCC3)c(C)c(=O)n1C2 (centres unmarked) [5 (8Aδ)] | 89 | 72 | 
20 | Cc1c(C(O)Cc2ccccc2)cc2n(c1=O)Cc1c-2nc2ccc(F)cc2c1[Si](C)(C)C (centres unmarked) [5 (5Bε)] | 88 | 49 | 
21 | CCCCCCc1c2c(nc3ccccc13)-c1cc(C(=O)Cc3ccccc3)c(C)c(=O)n1C2 [5 (8Aεκ)] | 92 | 59 | 
22 | CCC(O)c1cc2n(c(=O)c1C)Cc1c-2nc2ccccc2c1[Si](C)(C)C (centres unmarked) [5 (5Aα)] |  |  | Residual activity (%) RNase H ([1]; 10 µM): 93%; Residual activity (%) Polymerase ([2]; 10 µM): 32%
23 | Cc1c(C(O)C(C)(C)C)cc2n(c1=O)Cc1c-2nc2ccccc2c1[Si](C)(C)C(C)(C)C (centres unmarked) [5 (4Aβ)] | 101 | 71 | 
24 | CCCCCCc1c2c(nc3ccc(F)cc13)-c1cc(C(=O)CC)c(C)c(=O)n1C2 [5 (8Bακ)] | 103 | 64 | 
25 | CCCCCCc1c2c(nc3ccccc13)-c1cc(C(=O)CCC3CCCCC3)c(C)c(=O)n1C2 [5 (8Aδκ)] | 97 | 63 | 

Row | Compound | Residual activity (%) RNase H [1] [%] | Residual activity (%) Polymerase [2] [%] | also measured
26 | CCC(=O)c1cc2n(c(=O)c1C)Cc1c-2nc2ccc(C)cc2c1[Si](C)(C)C [5 (5Cακ)] | 109 | 93 | 
27 | Cc1c(C(O)Cc2ccccc2)cc2n(c1=O)Cc1c-2nc2ccccc2c1[Si](C)(C)C (centres unmarked) [5 (5Aε)] | 93 | 54 | 
28 | Cc1ccc2nc3c(c(-c4ccccc4)c2c1)Cn1c-3cc(C(O)CCC2CCCCC2)c(C)c1=O (centres unmarked) [5 (30δ)] | 93 | 74 | 
29 | CCCCCCc1c2c(nc3ccccc13)-c1cc(C(O)CC)c(C)c(=O)n1C2 (centres unmarked) [5 (8Aα)] | 83 | 42 | 
30 | COc1ccc2nc3c(c([Si](C)(C)C)c2c1)Cn1c-3cc(C(O)CCC2CCCCC2)c(C)c1=O (centres unmarked) [5 (5Dδ)] | 96 | 57 | 
31 | CCCCCCc1c2c(nc3ccc(C)cc13)-c1cc(C(=O)CC)c(C)c(=O)n1C2 [5 (8Cακ)] | 92 | 31 | 
32 | CCCCCCc1c2c(nc3ccc(F)cc13)-c1cc(C(=O)CCC3CCCCC3)c(C)c(=O)n1C2 [5 (8Bδκ)] | 95 | 80 | 
33 | CCCCCCc1c2c(nc3ccc(C)cc13)-c1cc(C(O)C(C)(C)C)c(C)c(=O)n1C2 (centres unmarked) [5 (8Cβ)] | 93 | 111 | 
34 | COc1ccc2nc3c(c(-c4ccccc4)c2c1)Cn1c-3cc(C(=O)Cc2ccccc2)c(C)c1=O [5 (3Dεκ)] | 88 | 73 | 
35 | CCC(=O)c1cc2n(c(=O)c1C)Cc1c-2nc2ccc(OC)cc2c1[Si](C)(C)C(C)(C)C [5 (4Dακ)] | 77 | 80 | 
36 | CCC(=O)c1cc2n(c(=O)c1C)Cc1c-2nc2ccccc2c1[Si](C)(C)C [5 (5Aακ)] | 103 | 91 | 
37 | CCCCCCc1c2c(nc3ccc(OC)cc13)-c1cc(C(O)CC)c(C)c(=O)n1C2 (centres unmarked) [5 (8Dα)] | 66 | 85 | 
38 | Cc1c(C(=O)CCC2CCCCC2)cc2n(c1=O)Cc1c-2nc2ccccc2c1[Si](C)(C)C [5 (5Aδκ)] | 75 | 90 | 
39 | COc1ccc2nc3c(c(-c4ccccc4)c2c1)Cn1c-3cc(C(O)CCC2CCCCC2)c(C)c1=O (centres unmarked) [5 (3Dδ)] | 67 | 60 | 
40 | Cc1c(C(=O)C(C)(C)C)cc2n(c1=O)Cc1c-2nc2ccc(F)cc2c1[Si](C)(C)C(C)(C)C [5 (4Bβκ)] | 79 | 82 | 
41 | CCCCCCc1c2c(nc3ccc(OC)cc13)-c1cc(C(O)Cc3ccccc3)c(C)c(=O)n1C2 (centres unmarked) [5 (8Dε)] | 82 | 73 | 
42 | CCCCCCc1c2c(nc3ccc(C)cc13)-c1cc(C(O)CC)c(C)c(=O)n1C2 (centres unmarked) [5 (8Cα)] | 65 | 84 | 
43 | Cc1c(C(=O)C(C)(C)C)cc2n(c1=O)Cc1c-2nc2ccccc2c1[Si](C)(C)C(C)(C)C [5 (4Aβκ)] | 70 | 79 | 
44 | CCC(O)c1cc2n(c(=O)c1C)Cc1c-2nc2ccc(OC)cc2c1[Si](C)(C)C(C)(C)C (centres unmarked) [5 (4Dα)] | 79 | 77 | 
45 | Cc1c(C(O)C(C)(C)C)cc2n(c1=O)Cc1c-2nc2ccc(F)cc2c1[Si](C)(C)C (centres unmarked) [5 (5Bβ)] | 102 | 74 | 
46 | COc1ccc2nc3c(c([Si](C)(C)C)c2c1)Cn1c-3cc(C(O)Cc2ccccc2)c(C)c1=O (centres unmarked) [5 (5Dε)] | 70 | 48 | 
47 | CCCCCCc1c2c(nc3ccc(C)cc13)-c1cc(C(=O)Cc3ccccc3)c(C)c(=O)n1C2 [5 (8Cεκ)] | 86 | 66 | 
48 | CCCCCCc1c2c(nc3ccc(C)cc13)-c1cc(C(O)Cc3ccccc3)c(C)c(=O)n1C2 (centres unmarked) [5 (8Cε)] | 76 | 76 | 
49 | 2-Acetoxy-12-ethyl-7-(1-hydroxypropyl)-8-methyl-1H-indolizino [1,2-b]quinolin-9-one [5 (AG 7M)] | 63 | 99 | 
